Source: the NIST ThermoML archive (doi:10.1021/je400134d)
± gives the expanded uncertainty stated by the source.

Details: 101.33 kPa, Liquid; for speed of sound: Pulse-echo method; for mass density: Vibrating tube method

Row | SMILES | speed of sound (293.15 K) [m/s] | mass density (293.15 K) [kg/m3] | speed of sound (298.15 K) [m/s] | mass density (298.15 K) [kg/m3] | speed of sound (303.15 K) [m/s] | mass density (303.15 K) [kg/m3]
1 | CNc1ccccc1 [N-methylaniline] | 1582.7 ± 2.2 | 986.444 ± 0.82 | 1564.7 ± 2.2 | 982.487 ± 0.82 | 1545.8 ± 2.2 | 978.541 ± 0.81
2 | Cc1ccccc1 [toluene] | 1325.8 ± 0.9 | 866.98 ± 0.1 | 1304.4 ± 0.8 | 862.295 ± 0.11 | 1283.7 ± 0.8 | 857.725 ± 0.11
3 | C1CCCCC1 [cyclohexane] | 1278 ± 1 | 778.706 ± 0.15 | 1253.6 ± 0.9 | 774.018 ± 0.16 | 1229.9 ± 0.9 | 769.297 ± 0.16
4 | CCCCCCC [heptane] | 1150.9 ± 0.9 | 683.845 ± 0.18 | 1129.6 ± 0.9 | 679.603 ± 0.18 | 1111.2 ± 0.9 | 675.532 ± 0.19
